Laboratory results taken from ChEMBL document CHEMBL3217690, “Superiority of a novel EGFR targeted covalent inhibitor over its reversible counterpart in overcoming drug resistance” (Medchemcomm, 2012).
Active and inactive are the calls of the source. The rule behind the calls is not given here.

Experiments:
NCI-H1975 = assay: Growth inhibition of human NCI-H1975 cells harboring EGFR L858R/T790M mutant assessed as reduction in cell viability after 72 hrs by CellTiter Glo assay; format: functional; details: NCI-H1975, 72 h
[1] = target: T1, Epidermal growth factor receptor (Homo sapiens, UniProt P00533); assay: Inhibition of EGF-induced EGFR autophosphorylation in human A431 cells at 1 uM after 2 mins by immunoblotting method; format: cell-based; details: A-431
[2] = target: T1, Epidermal growth factor receptor; assay: Inhibition of EGF-induced EGFR autophosphorylation in human A431 cells after 1 hr by immunoblotting method; format: cell-based, A-431
[3] = target: T2, Epidermal growth factor receptor (Homo sapiens, UniProt P00533, L858R/T790M); assay: Inhibition of EGF-induced EGFR L858R/T790M mutant-mediated pS6 phosphorylation in human […] cells after 1 hr by immunoblotting method; format: cell-based
[4] = target: T2, Epidermal growth factor receptor; assay: Inhibition of EGFR L858R/T790M mutant (unknown origin) using Y12-Sox peptide as substrate preincubated for 30 mins by fluorescence assay; format: protein assay
[5] = Inhibition of EGF-induced EGFR E746 to E750 deletion mutant autophosphorylation in human HCC827 cells after 1 hr by immunoblotting method; format: cell-based; details: HCC827, 1 h
[6] = target: T1, Epidermal growth factor receptor; assay: Inhibition of EGF-induced EGFR-mediated ERK phosphorylation in human A431 cells after 1 hr by immunoblotting method; format: cell-based, A-431
[7] = target: T2, Epidermal growth factor receptor; assay: Inhibition of EGF-induced EGFR L858R/T790M mutant-mediated Akt phosphorylation in human […] cells after 1 hr by immunoblotting method; format: cell-based
A-431 = assay: Growth inhibition of human A431 cells harboring wild type EGFR assessed as reduction in cell viability after 72 hrs by CellTiter Glo assay; format: functional; details: A-431, 72 h
[8] = target: T1, Epidermal growth factor receptor; assay: Inhibition of wild type EGFR (unknown origin) using Y12-Sox peptide as substrate preincubated for 30 mins by fluorescence assay
Homo sapiens = species on record: Homo sapiens; assay: Covalent binding affinity to EGFR C773S mutant (unknown origin) after 1 hr by mass spectrometry
[9] = target: T1, Epidermal growth factor receptor; assay: Irreversible inhibition of EGF-induced EGFR autophosphorylation in human A431 cells assessed as residual activity compound preincubated at 1 uM for 1 to 8 hrs measured after 1 hr post compound washout by immunoblotting method; format: cell-based; details: A-431
[10] = target: T1, Epidermal growth factor receptor; assay: Inhibition of EGF-induced EGFR autophosphorylation in human A431 cells at 1 uM after 10 mins by immunoblotting method; format: cell-based; details: A-431
[11] = target: T1, Epidermal growth factor receptor; assay: Inhibition of EGF-induced EGFR-mediated Akt phosphorylation in human A431 cells after 1 hr by immunoblotting method; format: cell-based, A-431
[12] = target: T2, Epidermal growth factor receptor; assay: Inhibition of EGF-induced EGFR L858R/T790M mutant-mediated ERK phosphorylation in human […] cells after 1 hr by immunoblotting method; format: cell-based
[13] = target: T1, Epidermal growth factor receptor; assay: Covalent binding affinity to wild type EGFR (unknown origin) after 1 hr by mass spectrometry
[14] = target: T1, Epidermal growth factor receptor; assay: Inhibition of EGF-induced EGFR autophosphorylation in human A431 cells at 1 uM after 30 mins by immunoblotting method; format: cell-based; details: A-431
[15] = Inhibition of EGF-induced EGFR E746 to E750 deletion mutant-mediated Akt phosphorylation in human HCC827 cells after 1 hr by immunoblotting method; format: cell-based; details: HCC827, 1 h
[16] = Growth inhibition of human HCC827 cells harboring EGFR E746 to E750 deletion mutant assessed as reduction in cell viability after 72 hrs by CellTiter Glo assay; format: functional; details: HCC827, 72 h
[17] = target: T1, Epidermal growth factor receptor; assay: Inhibition of EGF-induced EGFR-mediated pS6 phosphorylation in human A431 cells after 1 hr by immunoblotting method; format: cell-based, A-431
[18] = target: T2, Epidermal growth factor receptor; assay: Inhibition of EGF-induced EGFR L858R/T790M mutant autophosphorylation in human […] cells after 1 hr by immunoblotting method; format: cell-based
[19] = Inhibition of EGF-induced EGFR E746 to E750 deletion mutant-mediated pS6 phosphorylation in human HCC827 cells after 1 hr by immunoblotting method; format: cell-based; details: HCC827, 1 h
[20] = target: T1, Epidermal growth factor receptor; assay: Reversible inhibition of EGF-induced EGFR autophosphorylation in human A431 cells assessed as residual activity compound preincubated at 1 uM for 1 hr measured after 1 hr post compound washout by immunoblotting method; format: cell-based; details: A-431
[21] = target: T1, Epidermal growth factor receptor; assay: Reversible inhibition of EGF-induced EGFR autophosphorylation in human A431 cells assessed as residual activity compound preincubated at 1 uM for 1 hr measured after 8 hrs post compound washout by immunoblotting method; format: cell-based; details: A-431

T2 sequence (P00533 25-1210 T790M/L858R limits assumed): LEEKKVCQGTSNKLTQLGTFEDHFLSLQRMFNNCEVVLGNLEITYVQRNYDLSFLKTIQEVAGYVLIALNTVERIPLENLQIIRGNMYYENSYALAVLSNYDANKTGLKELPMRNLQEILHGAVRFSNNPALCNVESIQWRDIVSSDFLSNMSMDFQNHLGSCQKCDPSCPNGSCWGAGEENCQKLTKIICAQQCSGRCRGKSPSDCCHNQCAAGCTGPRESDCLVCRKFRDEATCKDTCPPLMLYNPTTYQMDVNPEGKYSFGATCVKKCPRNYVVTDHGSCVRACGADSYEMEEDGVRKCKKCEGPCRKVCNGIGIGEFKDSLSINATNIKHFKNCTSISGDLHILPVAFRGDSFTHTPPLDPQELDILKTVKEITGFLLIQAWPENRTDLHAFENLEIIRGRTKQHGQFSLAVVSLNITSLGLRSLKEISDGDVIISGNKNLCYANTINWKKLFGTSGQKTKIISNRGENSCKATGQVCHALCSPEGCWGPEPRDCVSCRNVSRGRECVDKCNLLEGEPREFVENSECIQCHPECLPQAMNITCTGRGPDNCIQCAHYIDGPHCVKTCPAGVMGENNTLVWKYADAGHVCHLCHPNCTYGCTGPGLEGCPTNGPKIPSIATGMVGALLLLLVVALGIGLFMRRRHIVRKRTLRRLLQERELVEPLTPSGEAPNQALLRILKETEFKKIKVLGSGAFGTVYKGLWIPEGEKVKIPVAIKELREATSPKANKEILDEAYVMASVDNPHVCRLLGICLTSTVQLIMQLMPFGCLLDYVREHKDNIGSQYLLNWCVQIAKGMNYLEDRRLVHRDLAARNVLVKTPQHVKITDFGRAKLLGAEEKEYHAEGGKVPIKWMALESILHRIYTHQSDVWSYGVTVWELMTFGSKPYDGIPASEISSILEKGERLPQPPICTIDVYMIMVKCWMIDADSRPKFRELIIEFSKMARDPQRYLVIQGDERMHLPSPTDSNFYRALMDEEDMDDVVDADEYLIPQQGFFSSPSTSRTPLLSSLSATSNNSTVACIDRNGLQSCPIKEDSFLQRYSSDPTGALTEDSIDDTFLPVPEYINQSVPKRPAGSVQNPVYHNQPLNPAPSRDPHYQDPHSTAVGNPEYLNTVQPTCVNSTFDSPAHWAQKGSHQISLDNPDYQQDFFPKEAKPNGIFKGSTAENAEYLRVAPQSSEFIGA
T1 sequence (P00533 whole entry): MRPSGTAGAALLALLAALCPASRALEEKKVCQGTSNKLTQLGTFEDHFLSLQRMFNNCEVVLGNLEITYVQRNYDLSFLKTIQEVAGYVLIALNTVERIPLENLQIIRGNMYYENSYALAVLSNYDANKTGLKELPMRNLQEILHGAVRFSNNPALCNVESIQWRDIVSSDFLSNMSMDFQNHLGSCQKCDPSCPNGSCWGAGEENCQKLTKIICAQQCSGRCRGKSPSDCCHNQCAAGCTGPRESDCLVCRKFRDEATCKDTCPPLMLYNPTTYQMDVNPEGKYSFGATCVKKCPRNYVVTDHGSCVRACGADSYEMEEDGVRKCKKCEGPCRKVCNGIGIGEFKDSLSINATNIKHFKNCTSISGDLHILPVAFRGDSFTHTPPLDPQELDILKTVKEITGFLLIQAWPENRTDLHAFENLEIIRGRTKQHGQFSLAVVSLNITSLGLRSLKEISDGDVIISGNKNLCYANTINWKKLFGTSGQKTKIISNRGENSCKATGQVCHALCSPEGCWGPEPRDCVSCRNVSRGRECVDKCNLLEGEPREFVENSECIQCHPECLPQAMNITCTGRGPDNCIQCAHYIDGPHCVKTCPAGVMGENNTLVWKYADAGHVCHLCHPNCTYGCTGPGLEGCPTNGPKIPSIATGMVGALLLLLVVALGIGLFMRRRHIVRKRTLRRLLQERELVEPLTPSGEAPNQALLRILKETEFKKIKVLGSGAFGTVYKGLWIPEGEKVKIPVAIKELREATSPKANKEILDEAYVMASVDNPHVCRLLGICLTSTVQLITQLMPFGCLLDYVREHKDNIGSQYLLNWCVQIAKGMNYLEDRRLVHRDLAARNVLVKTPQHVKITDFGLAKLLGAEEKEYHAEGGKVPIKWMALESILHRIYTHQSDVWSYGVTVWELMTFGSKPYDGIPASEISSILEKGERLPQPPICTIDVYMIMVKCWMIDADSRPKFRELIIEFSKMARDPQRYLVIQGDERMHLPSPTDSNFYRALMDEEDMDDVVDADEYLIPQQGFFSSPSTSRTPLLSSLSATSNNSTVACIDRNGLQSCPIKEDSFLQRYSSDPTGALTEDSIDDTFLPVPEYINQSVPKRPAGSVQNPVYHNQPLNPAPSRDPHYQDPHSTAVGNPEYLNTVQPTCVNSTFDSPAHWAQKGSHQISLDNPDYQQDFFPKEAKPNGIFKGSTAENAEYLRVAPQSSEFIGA

GI50 (NCI-H1975) [nM]	IC50 [2] [nM]	EC50 [3] [nM]	IC50 [4] [nM]	EC50 [5] [nM]	IC50 [6] [nM]	EC50 [7] [nM]	GI50 (A-431) [nM]	IC50 [8] [nM]	IC50 [11] [nM]	EC50 [12] [nM]	Activity [13]	EC50 [15] [nM]	IC50 [17] [nM]	EC50 [18] [nM]	EC50 [19] [nM]	Compound	GI50 [16] [nM]	other results
134	49	427	5.4	< 20	509	166	18	< 1	104	172	> 80%	< 20	511	441	< 20	C=CC(=O)Nc1cccc(Nc2cc(Nc3cccc(Br)c3)ncn2)c1	< 5	inhibition [1]: 50%; Activity (Homo sapiens): inactive; inhibition [9]: Active; inhibition [10]: 90%; inhibition [14]: Active
89	166	> 5000	> 5000	27	1160	> 4580	18	< 1	136	> 5000	inactive	< 20	243	> 5000	< 20	CCC(=O)Nc1cccc(Nc2cc(Nc3cccc(Br)c3)ncn2)c1	15	Activity [20]: 20%; Activity [21]: 60%
